What is called IC50 is the concentration that inhibits the measured activity by half. The low end stands for greater potency, the high end for weaker potency. The EC50 is the midpoint of the concentration-response curve. As a reminder, the GI50 is the concentration that inhibits growth by half. Higher therefore signals less potent growth inhibition.

Experiment [1] deals with KRAS-driven lung tumors. Put plainly: Tumor volume by MRI in KRAS G12D driven lung cancer model. The experiment is classed as in vivo. The following applies: KRAS G12D mice, 4 weeks, Torin2 40 mg/kg q.d., AZD6244 25 mg/kg q.d.
Experiment [2] concerns pERK. Put plainly: Pharmacodynamics by immunohistochemistry in KRAS G12D lung tumors. Particulars: for pERK1/2 levels: after 4-week treatment. Type of experiment: in vivo, Mice.
The subject of experiment [3] is Calu1. Put plainly: 72-hour proliferation assay. Type of experiment: cell-based, human.
In experiment [4] the target is T1, mTORC1 (Homo sapiens, UniProt P42345). The experiment is described as follows: Cellular wash-out assay, S6KT389 phosphorylation, HCT116 cells. The experiment is classed as cell-based. The following applies: 100 nM for 1 hour, then wash-out.
Experiment [5] addresses T2, mTORC2 (Homo sapiens, UniProt P42345). Put plainly: Cellular wash-out assay, AktS473 phosphorylation, HCT116 cells. Type of experiment: cell-based. The following applies: 100 nM for 1 hour, then wash-out.
Experiment [6] addresses T3, ATM (Homo sapiens, UniProt Q13315). Put plainly: Kinativ chemical proteomics profiling in cellular lysates. The experiment is classed as binding.
Experiment [7] has as its target T4, ATR (Homo sapiens, UniProt Q13535). The experiment is described as above. Type of experiment: binding.
The target of experiment [8] is PIP4K2C (Homo sapiens, UniProt Q8TBX8). The description is as above. The experiment is classed as binding.
Chain of PIP4K2C (Q8TBX8 whole entry, species assumed): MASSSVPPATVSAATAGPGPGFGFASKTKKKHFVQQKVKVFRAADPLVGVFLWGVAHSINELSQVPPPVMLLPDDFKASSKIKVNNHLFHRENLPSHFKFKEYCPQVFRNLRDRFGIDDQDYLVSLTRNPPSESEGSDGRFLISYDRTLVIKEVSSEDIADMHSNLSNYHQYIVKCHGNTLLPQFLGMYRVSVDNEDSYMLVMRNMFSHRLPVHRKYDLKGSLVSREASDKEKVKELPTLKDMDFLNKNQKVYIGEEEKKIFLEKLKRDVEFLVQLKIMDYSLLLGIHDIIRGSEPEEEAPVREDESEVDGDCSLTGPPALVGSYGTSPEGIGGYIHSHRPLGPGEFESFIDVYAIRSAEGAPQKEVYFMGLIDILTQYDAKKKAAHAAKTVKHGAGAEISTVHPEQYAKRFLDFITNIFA
For experiment [9], the target named is PIP5K3 (Homo sapiens, UniProt Q9Y2I7). The experiment is described as above. Type of experiment: binding.
Experiment [10] concerns the target SMG1 (Homo sapiens, UniProt Q96Q15). Described as above. Type of experiment: binding.
Experiment [11] has as its target T4, ATR. Put plainly: ATR cellular activity, S317 of Chk1 after UV radiation, HCT-116 cells. Type of experiment: cell-based.
The target of experiment [12] is T3, ATM. The experiment is classed as cell-based.
Experiment [13] has as its target T1, mTORC1. Particulars: 0.5 µM inhibitor 1 hour, then 500 µM ATP.
For experiment [14], the target named is T1, mTORC1. Particulars: cited from earlier work.
The subject of experiment [15] is T308 of Akt. Put plainly: Western blot of T308 of Akt in HCT-116 cells. The following applies: Homo sapiens, HCT-116, read-out: EC50, T308 of Akt. The experiment is classed as cell-based. Background: A western blot detects proteins with antibodies after separation by electrophoresis.
Experiment [16] has as its system H2122. The experiment is described as follows: Tumor cell growth assay. The experiment is classed as cell-based. The following applies: Homo sapiens, NCI-H2122, 72 h.
Experiment [17] has as its system H358. The experiment is described as follows: Tumor cell growth assay. The experiment is classed as cell-based. Particulars: Homo sapiens, NCI-H358, 72 h.
Experiment [18] deals with H1792. The experiment is described as follows: Tumor cell growth assay. Type of experiment: cell-based. Particulars: Homo sapiens, NCI-H1792, 72 h.
For experiment [19], the system named is A549. Put plainly: Tumor cell growth assay. The following applies: Homo sapiens, A549, 72 h. The experiment is classed as cell-based.
Experiment [20] relates to H441. Put plainly: Tumor cell growth assay. Type of experiment: cell-based. Particulars: Homo sapiens, NCI-H441, 72 h.
For experiment [21], the system named is H1355. Put plainly: Tumor cell growth assay. Type of experiment: cell-based. Particulars: Homo sapiens, NCI-H1355, 72 h.
In experiment [22] the test system is H460. The experiment is described as follows: Tumor cell growth assay. The following applies: Homo sapiens, NCI-H460, 72 h. Type of experiment: cell-based.
The subject of experiment [23] is HCT-116. The experiment is described as follows: Tumor cell growth assay. The experiment is classed as cell-based. The following applies: Homo sapiens, HCT-116, 72 h.
Experiment [24] relates to H1299. The experiment is described as follows: Tumor cell growth assay. The following applies: Homo sapiens, NCI-H1299, 72 h. Type of experiment: cell-based.
The test system of experiment [25] is H292. The experiment is described as follows: Tumor cell growth assay. Type of experiment: cell-based. Particulars: Homo sapiens, NCI-H292, 72 h.
The test system of experiment [26] is BT-20. Put plainly: Tumor cell growth assay. Type of experiment: cell-based. Particulars: Homo sapiens, BT-20, 72 h.
Experiment [27] has as its system HS578T. The experiment is described as follows: Tumor cell growth assay. Type of experiment: cell-based. Particulars: Homo sapiens, Hs-578T, 72 h.
In experiment [28] the test system is MCF10A. The experiment is described as follows: Tumor cell growth assay. Type of experiment: cell-based. Particulars: Homo sapiens, MCF-10A, 72 h.
For experiment [29], the system named is MCF7. The experiment is described as follows: Tumor cell growth assay. The following applies: Homo sapiens, MCF7, 72 h. Type of experiment: cell-based.
Experiment [30] relates to MDAMB231. The experiment is described as follows: Tumor cell growth assay. The experiment is classed as cell-based. Particulars: Homo sapiens, MDA-MB-231, 72 h.
Experiment [31] relates to SKBR3. The experiment is described as follows: Tumor cell growth assay. Type of experiment: cell-based. Particulars: Homo sapiens, SK-BR-3, 72 h.
Experiment [32] relates to Hela. The experiment is described as follows: Tumor cell growth assay. The experiment is classed as cell-based. The following applies: Homo sapiens, 72 h.
Experiment [33] has as its target Human mTORC1 complex (Homo sapiens, UniProt P42345). The experiment is described as follows: ATP competition assay. The following applies: biochemical kinase assays with increasing ATP concentrations.
For experiment [34], the system named is human fibroblast AG01522 cell line. Put plainly: Ionizing irradiation assay, clonogenic cell survival. The experiment is classed as cell-based. The following applies: AG01522, added 30min before irradiation.
Experiment [35] has as its system HCT116 cells, AktT308 phosphorylation. The experiment is described as follows: Longer-term cellular signaling analysis. Type of experiment: cell-based. Particulars: 100 nM.
The subject of experiment [36] is HeLa cells, AktT308 phosphorylation. Put plainly: Longer-term cellular signaling analysis. The experiment is classed as cell-based. Particulars: 100 nM.
Experiment [37] deals with cancer cell lines (HCT116, Hela, Calu 1, H226, H358). Put plainly: Apoptosis assay, PARP cleavage by western blot. The experiment is classed as cell-based. Particulars: 16 hours.
The subject of experiment [38] is Hela cells. Put plainly: Autophagy assay, acridine orange staining. The experiment is classed as cell-based. Particulars: 72 h.
Experiment [39] relates to HCT-116, Hela, Calu-1, H358 and H226. The experiment is described as follows: Autophagy assay, LC3B staining and western blot. Particulars: 5 cell lines, 3 days. The experiment is classed as cell-based.
The test system of experiment [40] is Hela S3 cells. The experiment is described as follows: Cell cycle analysis by FACS. The following applies: Hela S3, 48 hrs. The experiment is classed as cell-based. On the technique in general: A flow cytometer gives signals particle by particle.
In experiment [41] the test system is mTOR. The experiment is described as follows: Pharmacodynamics by immunohistochemistry in KRAS G12D lung tumors. The experiment is classed as in vivo, Mice.
The test system of experiment [42] is ATR kinase. Described as above. Type of experiment: in vivo, Mice. The following applies: after 4-week treatment.
The target of experiment [43] is T1, mTORC1. The following applies: combined biochemical and cellular profiling summary.
Experiment [44] deals with T2, mTORC2. The following applies: combined biochemical and cellular profiling summary.
Experiment [45] deals with PI3K.
Experiment [46] has as its target DNA-PK (Homo sapiens, UniProt P78527). The following applies: combined biochemical and cellular profiling summary.
[47] abbreviates: combined biochemical and cellular profiling summary.
Setting [48] is: 2-day, 40 mg/kg single daily dosing.

SMILES strings stand for the structures. “Also recorded” adds a separate entry of the source.

T4 sequence (Q13535 whole entry): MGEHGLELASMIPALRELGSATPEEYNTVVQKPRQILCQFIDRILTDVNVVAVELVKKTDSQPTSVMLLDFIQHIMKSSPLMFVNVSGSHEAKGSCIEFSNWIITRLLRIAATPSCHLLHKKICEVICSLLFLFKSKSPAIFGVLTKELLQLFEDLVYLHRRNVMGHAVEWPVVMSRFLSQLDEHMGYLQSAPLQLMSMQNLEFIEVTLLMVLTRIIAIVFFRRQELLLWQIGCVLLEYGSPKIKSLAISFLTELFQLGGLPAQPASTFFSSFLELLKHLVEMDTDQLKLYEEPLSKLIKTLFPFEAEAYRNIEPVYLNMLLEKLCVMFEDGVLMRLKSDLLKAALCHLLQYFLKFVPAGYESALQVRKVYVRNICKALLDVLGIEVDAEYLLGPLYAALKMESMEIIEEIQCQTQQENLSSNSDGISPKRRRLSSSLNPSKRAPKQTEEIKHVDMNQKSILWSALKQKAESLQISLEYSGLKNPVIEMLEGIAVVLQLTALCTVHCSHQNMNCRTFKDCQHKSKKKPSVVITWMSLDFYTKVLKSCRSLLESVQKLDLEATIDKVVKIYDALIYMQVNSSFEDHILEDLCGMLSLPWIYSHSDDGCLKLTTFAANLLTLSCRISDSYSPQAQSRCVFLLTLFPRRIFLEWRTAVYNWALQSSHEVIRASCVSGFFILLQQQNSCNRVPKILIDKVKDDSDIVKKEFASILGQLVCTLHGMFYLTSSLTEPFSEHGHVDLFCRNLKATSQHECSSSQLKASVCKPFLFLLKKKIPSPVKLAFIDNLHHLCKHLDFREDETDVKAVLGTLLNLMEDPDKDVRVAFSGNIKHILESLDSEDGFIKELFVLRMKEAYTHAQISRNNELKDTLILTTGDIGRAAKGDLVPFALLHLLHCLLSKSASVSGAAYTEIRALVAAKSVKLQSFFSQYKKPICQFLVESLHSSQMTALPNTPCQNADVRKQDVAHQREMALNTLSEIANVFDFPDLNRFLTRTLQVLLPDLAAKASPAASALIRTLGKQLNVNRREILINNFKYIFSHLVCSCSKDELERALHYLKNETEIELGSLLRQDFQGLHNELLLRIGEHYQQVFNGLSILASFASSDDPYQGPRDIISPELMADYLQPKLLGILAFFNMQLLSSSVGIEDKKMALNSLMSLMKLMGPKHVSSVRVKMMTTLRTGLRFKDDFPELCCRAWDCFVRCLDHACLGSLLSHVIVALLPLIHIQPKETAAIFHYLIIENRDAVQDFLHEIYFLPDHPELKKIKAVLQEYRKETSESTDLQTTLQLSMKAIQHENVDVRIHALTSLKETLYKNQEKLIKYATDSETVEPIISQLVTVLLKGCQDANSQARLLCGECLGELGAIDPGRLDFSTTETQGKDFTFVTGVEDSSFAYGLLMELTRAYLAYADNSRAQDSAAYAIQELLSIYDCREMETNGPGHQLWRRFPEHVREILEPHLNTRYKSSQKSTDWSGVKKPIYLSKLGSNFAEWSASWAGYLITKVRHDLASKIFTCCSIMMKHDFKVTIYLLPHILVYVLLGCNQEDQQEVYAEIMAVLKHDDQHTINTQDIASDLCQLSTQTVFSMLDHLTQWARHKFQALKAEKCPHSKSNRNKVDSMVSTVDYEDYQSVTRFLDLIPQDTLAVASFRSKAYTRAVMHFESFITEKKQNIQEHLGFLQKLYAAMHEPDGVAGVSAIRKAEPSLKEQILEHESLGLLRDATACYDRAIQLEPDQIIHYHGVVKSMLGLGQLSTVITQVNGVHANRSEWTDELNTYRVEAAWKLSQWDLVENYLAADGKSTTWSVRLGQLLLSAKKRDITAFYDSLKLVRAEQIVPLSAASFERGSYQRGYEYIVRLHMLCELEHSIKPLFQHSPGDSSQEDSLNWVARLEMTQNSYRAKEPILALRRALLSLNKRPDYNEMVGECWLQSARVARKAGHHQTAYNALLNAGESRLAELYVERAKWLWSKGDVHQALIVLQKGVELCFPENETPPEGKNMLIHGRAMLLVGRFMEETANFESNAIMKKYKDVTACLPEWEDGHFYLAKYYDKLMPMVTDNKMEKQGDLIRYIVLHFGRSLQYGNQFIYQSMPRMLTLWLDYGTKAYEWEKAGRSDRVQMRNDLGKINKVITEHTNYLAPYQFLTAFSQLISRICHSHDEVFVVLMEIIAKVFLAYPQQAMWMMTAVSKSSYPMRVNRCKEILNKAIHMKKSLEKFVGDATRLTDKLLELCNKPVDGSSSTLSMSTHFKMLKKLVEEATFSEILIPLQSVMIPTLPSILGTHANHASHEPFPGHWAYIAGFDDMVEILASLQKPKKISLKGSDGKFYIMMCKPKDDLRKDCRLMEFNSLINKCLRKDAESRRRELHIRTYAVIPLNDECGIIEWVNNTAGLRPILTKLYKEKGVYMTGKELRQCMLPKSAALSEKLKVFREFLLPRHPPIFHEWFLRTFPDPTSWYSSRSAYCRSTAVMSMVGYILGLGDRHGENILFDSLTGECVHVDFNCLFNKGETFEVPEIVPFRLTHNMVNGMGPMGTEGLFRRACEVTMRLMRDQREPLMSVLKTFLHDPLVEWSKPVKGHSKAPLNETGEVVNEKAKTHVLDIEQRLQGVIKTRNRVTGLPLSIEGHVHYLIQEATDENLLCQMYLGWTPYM
T4 sequence (Q8WXE1 whole entry partner): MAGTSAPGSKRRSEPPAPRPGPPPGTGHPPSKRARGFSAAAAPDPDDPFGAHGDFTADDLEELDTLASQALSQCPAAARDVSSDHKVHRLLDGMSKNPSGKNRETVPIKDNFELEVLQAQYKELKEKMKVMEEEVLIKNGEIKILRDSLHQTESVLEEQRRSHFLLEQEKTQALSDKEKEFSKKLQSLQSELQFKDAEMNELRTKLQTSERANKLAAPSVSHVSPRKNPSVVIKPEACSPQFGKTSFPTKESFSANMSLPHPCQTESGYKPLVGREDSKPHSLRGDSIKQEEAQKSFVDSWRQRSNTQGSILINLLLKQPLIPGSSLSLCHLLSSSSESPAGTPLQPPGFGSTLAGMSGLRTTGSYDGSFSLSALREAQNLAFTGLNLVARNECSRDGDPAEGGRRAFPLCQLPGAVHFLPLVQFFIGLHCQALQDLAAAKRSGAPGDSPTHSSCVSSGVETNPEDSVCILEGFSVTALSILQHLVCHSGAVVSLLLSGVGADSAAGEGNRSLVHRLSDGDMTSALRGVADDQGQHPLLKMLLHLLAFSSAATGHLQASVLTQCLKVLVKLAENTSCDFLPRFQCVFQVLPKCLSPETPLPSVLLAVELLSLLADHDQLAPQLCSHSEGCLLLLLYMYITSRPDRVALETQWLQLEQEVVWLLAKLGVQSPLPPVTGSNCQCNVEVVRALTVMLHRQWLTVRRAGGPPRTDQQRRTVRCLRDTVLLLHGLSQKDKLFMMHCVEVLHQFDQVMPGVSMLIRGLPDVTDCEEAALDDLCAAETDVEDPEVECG

Regarding `Cn1cnc2c(F)c(Nc3ccc(Br)cc3Cl)c(C(=O)NOCCO)cc21` [AZD6244], in [1], the “tumor volume / tumor growth by MRI” value is reported as “neither Torin2 (40 mg/kg, q.d.) nor AZD6244 (25 mg/kg, q.d.) alone resulted in a significant inhibition of tumor volume”. Besides, the pERK by immunohistochemistry entry in experiment [2] (2-day, AZD6244 25 mg/kg) is listed as “profound inhibition”. For the same molecule, in experiment [2], the pERK1/2 levels result is given as “slightly recovered”.
Regarding `COc1ccc(-c2ccc3c(N4CCOC[C@@H]4C)nc(N4CCOC[C@@H]4C)nc3n2)cc1CO` [AZD8055, reference compound], in experiment [3], the “sensitivity of proliferation, Calu1” value is “relatively more resistant”. Moreover, in experiment [4], the “time for S6KT389 phosphorylation (mTORC1 function) to recover after wash-out” value was no more than 1 h. In experiment [5], the “time for AktS473 phosphorylation (mTORC2 function) to recover after wash-out” value is no more than 1 h.
For `CCC(=O)N1CCN(c2ccc(-n3c(=O)ccc4cnc5ccc(-c6cnc7ccccc7c6)cc5c43)cc2C(F)(F)F)CC1` [Torin1, 1-(4-(4-propionylpiperazin-1-yl)-3-(trifluoromethyl)phenyl)-9-(quinolin-3-yl)benz o[h][1,6]naphthyridin-2(1H)-one], the half-inhibitory concentration (IC50) in [6] is 640 nM; in [7] it was less than 10 nM; in experiment [8], greater than 10000 nM; in experiment [9], greater than 10000 nM; in experiment [10], 4400 nM. Besides, the EC50 in [11] and in experiment [12] was greater than 1000 nM in each case. Besides, the “duration of sustained inhibition of mTORC1 kinase activity after removal of drug” value in experiment [13] (4EBP1 phosphorylation) is on record as “approximately 75 minutes”. Moreover, the “duration of suppression of S6K T389 phosphorylation after removal of the drug” value in experiment [14] is reported as “up to 16 h”.
For `Nc1ccc(-c2ccc3ncc4ccc(=O)n(-c5cccc(C(F)(F)F)c5)c4c3c2)cn1` [Torin2, 9-(6-aminopyridin-3-yl)-1-(3-(trifluoromethyl)phenyl)benzo[h][1,6]naphthyridin-2(1H)-one], the concentration giving a half-maximal response (EC50) is less than 10 nM in experiment [15] and 200 nM in experiment [45] (read-out: apparent EC50 against T308 with S473D mutant of Akt, PC3 AktS473D cell line). Besides, the “concentration at which ATR is inhibited” value in experiment [11] (setting [47]) lay within 20 to 100 nM. Besides, in experiment [12] (setting [47]), the “concentration at which ATM is inhibited” value fell in the range of 20 to 100 nM. Also, the GI50 in experiment [16] was found to be 13.2 nM; in [17], 105 nM; in experiment [18], 19.8 nM; in [19], 31.1 nM; in experiment [20], 20.5 nM; in experiment [21], 25.8 nM. Further, the GI50 came out at 45.7 nM in [22]; 60.7 nM in [23]; 23.6 nM in experiment [24]; 10.1 nM in experiment [25]; 219 nM in experiment [26]; 62.4 nM in experiment [27]. Moreover, the concentration for 50% growth inhibition (GI50) was determined as 32.1 nM in [28]; 41.1 nM in [29]; 108 nM in experiment [30]; 123 nM in experiment [31]; 29.3 nM in [32]. Moreover, the “sensitivity of proliferation, Calu1” value in experiment [3] is reported as “relatively more resistant”. Moreover, the “mode of mTOR inhibition” value in experiment [33] was “ATP-competitive fashion”. The “time for AktS473 phosphorylation (mTORC2 function) to recover after wash-out” value in [5] was “approximately 4 hours”. The “sensitization of IR treatment, clonogenic survival” value in experiment [34] is recorded as “dose dependent sensitization of the IR treatment”. Moreover, the figures for the “recovery of AktT308 phosphorylation by 72 hours” value in [35] and in experiment [36] were “partially” and “completely recovered”, respectively. Besides, the “apoptosis (PARP cleavage) in H358” value in experiment [37] is recorded as “induced strong apoptosis”. Further, in experiment [38], the “punctate acridine orange staining (autophagy)” value is “dose dependent increase in punctate acridine staining”. The LC3-1/II autophagosome markers entry in [39] is recorded as “dose dependent increase of LC3-1/II autophagosome markers”. In experiment [40], the “cell cycle distribution by flow cytometry” value was “dose-dependent decrease in G1 cells and an increase in S-phase, sub-G1 phase cells and cell death”. Besides, the “tumor volume / tumor growth by MRI” value in [1] is listed as “did not yield significant efficacy; also recorded: neither Torin2 (40 mg/kg, q.d.) nor AZD6244 (25 mg/kg, q.d.) alone resulted in a significant inhibition of tumor volume”. Further, the “pAkt(T308) by immunohistochemistry” value in [41] (setting [48]) is recorded as “partly suppressed”. Besides, in experiment [41] (setting [48]), the “pS6K(T389) and p4EBP1(T37/46) by immunohistochemistry” value is listed as “strongly suppressed”. In experiment [41] (after 4-week treatment), the “pS6K(T389) and p4EBP1(T37/46) levels” value was “showed some recovery”. Moreover, the pERK1/2 levels result in [2] is reported as “significantly increased”. In addition, the “pCHK1(S345)” value in [42] is “slightly decreased”. Further, in experiment [43], the “concentration at which mTORC1 is inhibited” value is given as “less than 10 nM”. Further, in experiment [44], the “concentration at which mTORC2 is inhibited” value is reported as “less than 10 nM”. Besides, the “concentration at which PI3K is inhibited” value in experiment [45] (setting [47]) is listed as “above 200 nM”. Also, the “concentration at which DNA-PK is inhibited” value in experiment [46] lay in the range of 20 to 100 nM. The “recovery of mTORC1 kinase activity after removal of drug” value in experiment [13] (about 75 minutes window) was “sustained inhibition of mTORC1”.

The values above are taken from article PMC3760004 (Cancer research, 2013).
